In patent publication US20160362408A1 (Bayer Pharma Aktiengesellschaft, priority 2013, published 2016):

These compounds were tested against T1, recombinant guanylate cyclase reporter cell line (Rattus norvegicus, UniProt P19686+P20595) (assay: Effect on a recombinant guanylate cyclase reporter cell line). Settings: MEC = minimum effective concentration; in some cases mean values for individual determinations.
T1 construct: expressed in transfected cells
T1 sequence (P19686 1-690): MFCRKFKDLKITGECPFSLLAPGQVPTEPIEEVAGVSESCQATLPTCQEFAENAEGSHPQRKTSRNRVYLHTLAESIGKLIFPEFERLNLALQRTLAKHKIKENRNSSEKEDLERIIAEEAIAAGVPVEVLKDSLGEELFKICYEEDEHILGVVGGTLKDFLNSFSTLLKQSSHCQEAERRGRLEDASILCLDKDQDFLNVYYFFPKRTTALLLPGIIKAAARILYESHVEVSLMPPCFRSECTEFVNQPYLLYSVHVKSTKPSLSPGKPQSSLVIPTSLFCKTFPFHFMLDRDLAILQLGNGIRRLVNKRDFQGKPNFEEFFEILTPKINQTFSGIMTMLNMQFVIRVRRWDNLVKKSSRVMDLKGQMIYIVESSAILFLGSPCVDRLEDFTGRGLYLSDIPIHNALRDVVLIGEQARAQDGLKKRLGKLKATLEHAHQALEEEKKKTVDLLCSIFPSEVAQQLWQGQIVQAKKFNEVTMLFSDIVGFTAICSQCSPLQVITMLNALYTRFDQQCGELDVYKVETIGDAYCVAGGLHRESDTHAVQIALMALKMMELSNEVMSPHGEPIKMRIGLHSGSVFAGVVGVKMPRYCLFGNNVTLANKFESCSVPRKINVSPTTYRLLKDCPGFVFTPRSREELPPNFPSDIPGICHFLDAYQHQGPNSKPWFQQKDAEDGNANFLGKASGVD
T1 sequence (P20595 1-619): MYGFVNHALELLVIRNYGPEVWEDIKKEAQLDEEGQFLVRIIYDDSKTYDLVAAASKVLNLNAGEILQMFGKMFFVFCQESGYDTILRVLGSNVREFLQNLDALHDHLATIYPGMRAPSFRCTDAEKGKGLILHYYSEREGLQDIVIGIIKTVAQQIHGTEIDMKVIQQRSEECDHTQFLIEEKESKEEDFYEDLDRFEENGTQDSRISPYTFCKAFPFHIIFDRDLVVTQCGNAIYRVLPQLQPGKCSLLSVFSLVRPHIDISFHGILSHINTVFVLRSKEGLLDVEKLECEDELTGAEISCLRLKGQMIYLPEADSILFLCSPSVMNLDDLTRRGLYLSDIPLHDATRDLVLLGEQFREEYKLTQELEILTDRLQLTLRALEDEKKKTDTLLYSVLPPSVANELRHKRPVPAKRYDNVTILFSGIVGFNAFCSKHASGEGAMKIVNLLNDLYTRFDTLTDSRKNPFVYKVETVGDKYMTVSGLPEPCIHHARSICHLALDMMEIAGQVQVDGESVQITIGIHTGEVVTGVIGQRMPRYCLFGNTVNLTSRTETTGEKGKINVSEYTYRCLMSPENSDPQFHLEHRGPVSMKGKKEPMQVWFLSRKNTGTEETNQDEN
Assay type: cell-based
Experimental: B-2. Effect on a Recombinant Guanylate Cyclase Reporter Cell Line
The cellular action of the compounds of the invention is determined using a recombinant guanylate cyclase reporter cell line, as described in F. Wunder et al., Anal. Biochem. 339, 104-112 (2005).
Representative MEC values (MEC=minimum effective concentration) for the compounds of the invention are shown in the table below (in some cases as mean values for individual determinations): […]
Compound “8-[(2,6-difluorobenzyl)oxy]-N-[1-(2- hydroxyethyl)-5-methyl-3-(trifluoromethyl)-1H- pyrazol-4-yl]-2,6-dimethylimidazo[1,2-a]pyridine- 3-carboxamide [Example 118]” has an MEC of 0.1 µM. Work on `Cc1nc2c(OCc3c(F)cccc3F)cccn2c1C(=O)Nc1cnn(CCN2CCC(O)C2)c1` (racemic) [Example 131, rac-8-[(2,6-difluorobenzyl)oxy]-N-{1-[2-(3-hydroxypyrrolidin-1-yl)ethyl]-1H-pyrazol-4-yl}-2-methylimidazol[1,2-a] pyridine-3-carboxamide] yielded an MEC of 10 µM. `Cc1nc2c(OCc3c(F)cccc3F)cccn2c1C(=O)Nc1cnn2ccccc12` [Example 1, 8-[(2,6-Difluorobenzyl)oxy]-2-methyl-N-(pyrazolo[1,5-a]pyridin-3-yl)imidazo[1,2-a]pyridine-3-carboxamide] showed an MEC of 0.1 µM. `Cc1nc2c(OCc3c(F)cccc3F)cccn2c1C(=O)Nc1c[nH]c2ccccc12` [Example 2] showed an MEC of 0.1 µM. In the case of `Cc1n[nH]cc1NC(=O)c1c(C)nc2c(OCc3c(F)cccc3F)cccn12` [Example 3], the MEC is reported as 0.3 µM. `Cc1nn(C)cc1NC(=O)c1c(C)nc2c(OCc3c(F)cccc3F)cccn12` [Example 4] showed an MEC of 0.3 µM. Work on `Cc1cccc(NC(=O)c2c(C)nc3c(OCc4c(F)cccc4F)cccn23)n1` [Example 5] yielded an MEC of 0.3 µM. Work on `Cc1nc2c(OCc3c(F)cccc3F)cccn2c1C(=O)Nc1ccc2c(c1)OCC(=O)N2` [Example 6] yielded an MEC of 0.1 µM. With `CCc1cc(NC(=O)c2c(C)nc3c(OCc4c(F)cccc4F)cccn23)ccn1` [Example 8] the MEC was 0.1 µM. Work on `Cc1ccc(F)c(NC(=O)c2c(C)nc3c(OCc4c(F)cccc4F)cccn23)c1` [Example 9] yielded an MEC of 0.3 µM. `Cc1nc2c(OCc3c(F)cccc3F)cccn2c1C(=O)Nc1ccccc1F` [Example 10] was tested, and the MEC was 0.3 µM. Compound `Cc1nc2c(OCc3c(F)cccc3F)cccn2c1C(=O)Nc1ccccc1` [Example 11] has an MEC of 0.3 µM. Compound `Cc1cccc(NC(=O)c2c(C)nc3c(OCc4c(F)cccc4F)cccn23)c1C` [Example 12] has an MEC of 0.3 µM. In the case of `COc1cccc(NC(=O)c2c(C)nc3c(OCc4c(F)cccc4F)cccn23)c1` [Example 13], the MEC is reported as 0.3 µM. `Cc1nc2c(OCc3c(F)cccc3F)cccn2c1C(=O)Nc1cccc(Cl)c1C` [Example 14] gave an MEC of 0.3 µM. In the case of `COc1cccc(C)c1NC(=O)c1c(C)nc2c(OCc3c(F)cccc3F)cccn12` [Example 15], the MEC is reported as 0.3 µM. With `COc1ccc(C)c(NC(=O)c2c(C)nc3c(OCc4c(F)cccc4F)cccn23)c1` [Example 16] the MEC was 0.3 µM. `Cc1nc2c(OCc3c(F)cccc3F)cccn2c1C(=O)Nc1cccc(C(C)O)c1` (stereo not shown) [Example 17] was tested, and the MEC was 0.3 µM. For `CC(=O)Nc1ccc(NC(=O)c2c(C)nc3c(OCc4c(F)cccc4F)cccn23)cc1C(F)(F)F` [Example 18], the MEC was 0.3 µM. Work on `Cc1nc2c(OCc3c(F)cccc3F)cccn2c1C(=O)Nc1cc[nH]n1` [Example 19] yielded an MEC of 3.0 µM. `CCn1nccc1NC(=O)c1c(C)nc2c(OCc3c(F)cccc3F)cccn12` [Example 20] showed an MEC of 1.0 µM. `Cc1nc2c(OCc3c(F)cccc3F)cccn2c1C(=O)Nc1ccnn1C(C)C` [Example 21] gave an MEC of 1.0 µM. For `Cc1nc2c(OCc3c(F)cccc3F)cccn2c1C(=O)Nc1cnn(CCO)c1` [Example 22, 8-[(2,6-Difluorobenzyl)oxy]-N-[1-(2-hydroxyethyl)-1H-pyrazol-4-yl]-2-methylimidazo[1,2-a]pyridine-3-carboxamide], the MEC was 1.43 µM. `Cc1noc(C)c1NC(=O)c1c(C)nc2c(OCc3c(F)cccc3F)cccn12` [Example 23, 8-[(2,6-difluorobenzyl)oxy]-N-(3,5-dimethyl-1,2-oxazol-4-yl)-2-methylimidazo[1,2-a]pyridine-3-carboxamide] showed an MEC of 0.65 µM. Compound `Cc1nc2c(OCc3c(F)cccc3F)cccn2c1C(=O)Nc1cnn(CC(N)=O)c1` [Example 25, N-[1-(2-amino-2-oxoethyl)-1H-pyrazol-4-yl]-8-[(2,6-difluorobenzyl)oxy]-2-methylimidazo[1,2-a]pyridine-3-carboxamide] has an MEC of 3.0 µM. In the case of `COCCn1cc(NC(=O)c2c(C)nc3c(OCc4c(F)cccc4F)cccn23)cn1` [Example 26, 8-[(2,6-difluorobenzyl)oxy]-N-[1-(2-methoxyethyl)-1H-pyrazol-4-yl]-2-methylimidazo[1,2-a]pyridine-3-carboxamide], the MEC is reported as 1.0 µM. With `Cc1nc2c(OCc3c(F)cccc3F)cccn2c1C(=O)Nc1cnn(C(C)C)c1` [Example 27, 8-[(2,6-difluorobenzyl)oxy]-N-(1-isopropyl-1H-pyrazol-4-yl)-2-methylimidazo[1,2-a]pyridine-3-carboxamide] the MEC was 0.3 µM. `Cc1n[nH]c(C)c1NC(=O)c1c(C)nc2c(OCc3c(F)cccc3F)cccn12` [Example 29, 8-[(2,6-difluorobenzyl)oxy]-N-(3,5-dimethyl-1H-pyrazol-4-yl)-2-methylimidazo[1,2-a]pyridine-3-carboxamide] showed an MEC of 0.53 µM. `Cc1nc2c(OCc3c(F)cccc3F)cccn2c1C(=O)Nc1cnn(CC(F)(F)F)c1` [Example 30, 8-[(2,6-difluorobenzyl)oxy]-2-methyl-N-[1-(2,2,2-trifluoroethyl)-1H-pyrazol-4-yl]imidazo[1,2-a]pyridine-3-carboxamide] gave an MEC of 0.3 µM. Compound `Cc1nc2c(OCc3c(F)cccc3F)cccn2c1C(=O)Nc1cn[nH]c1` [Example 31, 8-[(2,6-difluorobenzyl)oxy]-2-methyl-N-(1H-pyrazol-4-yl)imidazo[1,2-a]pyridine-3-carboxamide] has an MEC of 1.0 µM. Work on `Cc1nn(CC(F)(F)F)c(C)c1NC(=O)c1c(C)nc2c(OCc3c(F)cccc3F)cccn12` [Example 32, 8-[(2,6-difluorobenzyl)oxy]-N-[3,5-dimethyl-1-(2,2,2-trifluoroethyl)-1H-pyrazol-4-yl]-2-methylimidazo[1,2-a]pyridine-3-carboxamide] yielded an MEC of 1.0 µM. With `Cc1nn(CC(F)(F)F)cc1NC(=O)c1c(C)nc2c(OCc3c(F)cccc3F)cccn12` [Example 33, 8-[(2,6-difluorobenzyl)oxy]-2-methyl-N-[3-methyl-1-(2,2,2-trifluoroethyl)-1H-pyrazol-4-yl]imidazo[1,2-a]pyridine-3-carboxamide] the MEC was 1.0 µM. For `Cc1nn(C)c(N2CCOCC2)c1NC(=O)c1c(C)nc2c(OCc3c(F)cccc3F)cccn12` [Example 34, 8-[(2,6-difluorobenzyl)oxy]-N-[1,3-dimethyl-5-(morpholin-4-yl)-1H-pyrazol-4-yl]-2-methylimidazo[1,2-a]pyridine-3-carboxamide], the MEC was 1.0 µM. Compound `Cc1nc2c(OCc3c(F)cccc3F)cccn2c1C(=O)Nc1cnn(Cc2cccc(F)c2)c1` [Example 35, 8-[(2,6-difluorobenzyl)oxy]-N-[1-(3-fluorobenzyl)-1H-pyrazol-4-yl]-2-methylimidazo[1,2-a]pyridine-3-carboxamide] has an MEC of 3.0 µM. `CNC(=O)c1c(NC(=O)c2c(C)nc3c(OCc4c(F)cccc4F)cccn23)cnn1C` [Example 36, 8-[(2,6-difluorobenzyl)oxy]-2-methyl-N-[1-methyl-5-(methylcarbamoyl)-1H-pyrazol-4-yl]imidazo[1,2-a]pyridine-3-carboxamide] showed an MEC of 1.0 µM. Compound `Cc1nn(CCO)c(C)c1NC(=O)c1c(C)nc2c(OCc3c(F)cccc3F)cccn12` [Example 37, 8-[(2,6-difluorobenzyl)oxy]-N-[1-(2-hydroxyethyl)-3,5-dimethyl-1H-pyrazol-4-yl]-2-methylimidazo[1,2-a]pyridine-3-carboxamide] has an MEC of 0.3 µM. Work on `CCn1nc(C)c(NC(=O)c2c(C)nc3c(OCc4c(F)cccc4F)cccn23)c1C` [Example 38, 8-[(2,6-Difluorobenzyl)oxy]-N-(1-ethyl-3,5-dimethyl-1H-pyrazol-4-yl)-2-methylimidazo[1,2-a]pyridine-3-carboxamide] yielded an MEC of 1.0 µM.
